From patent publication US10799545B2, “Transdermal delivery of cannabidiol with other active moieties including cannabinoids” (LIFE TECH GLOBAL, LLC, priority 2016, dated 2020)
“Also recorded” adds a separate entry of the source.

What was measured:
[1] = Franz Diffusion Cell, CBD flux from monolithic adhesive patch through human cadaver skin; type: in vitro ADME; settings: monolithic patches: Vistanex LM 5% or 10% CBD, DuroTak 87-2516 10% CBD, BIO PSA 7-4302 5% CBD (FIG. 7)
Method: Formulations of monolithic patches were prepared by solubilizing CBD in different adhesives and CBD transdermal flux was performed through human cadaver skin using Franz Diffusion Cell method. We found the highest transdermal flux of CBD from a formulation that comprises PIB adhesive and 10% CBD.
A monolithic transdermal device 40 is constructed using a matrix 44 of pure CBD and three different adhesives. A first device 40 includes a PE/PET backing and a matrix 44 comprising 95 percent Vistanex) LM polyisobutylene adhesive by weight of matrix 44 mixed with 5 percent substantially pure CBD by weight of matrix 44. A second device is similarly constructed, but the amount of CBD in the matrix 44 is 10 percent by weight of the matrix 44, and the amount of Vistanex LM is 90 percent by weight of the matrix 44. A third patch is constructed using a DuroTak 87-2516 adhesive in an amount of 90 percent by weight of matrix 44 and 10 percent CBD by weight of matrix 44, and a fourth patch is constructed using a BIO PSA 7-4302 adhesive in an amount of 95 percent by weight of matrix 44 and 5 percent CBD by weight of matrix 44.

[2] = Franz Diffusion Cell, CBD flux from reservoir transdermal device through human cadaver epidermis; type: in vitro ADME
Method: The effects of using a hydrophobic, porous membrane versus a hydrophilic, porous membrane (such as membrane 24) in reservoir transdermal device 20 are studied in this example. A mixture is formed by dissolving CBD powder in ethanol to yield a solution comprising 10 percent by weight CBD and 90 percent by weight ethanol. The backing 22 is an occlusive backing film (PE/PET from 3M). Hydroxy ethyl cellulose is added to the solution to yield a thixotropic preparation 27. A volume of 300 μL of the preparation is placed in the reservoir 26.
The skin adhesive 30 is a BIO PSA 7-4301 adhesive coated to a thickness of 15 g/m^2 on side 36 of membrane 24. An overlay adhesive patch is placed over the reservoir which forms an island in the middle. The overlay assures adhesion of the reservoir to the skin. The device 20 is contacted with a human cadaver epidermis, and diffusion through the epidermis is measured using the Franz Diffusion Cell method.
In a first run, membrane 24 is a Lydall® Evopor™ 5E02A, hydrophilic, microporous membrane (of 0.2 μm pore size). In a second run, the device 20 is constructed similarly, but membrane 24 is a hydrophobic Lydall® Solupor™ 7P03A porous membrane.
The reservoir device 20 of Example 1 is used, but instead of using ethanol alone as the liquid carrier, a mixture of ethanol and water is used wherein the ethanol comprises 70 percent by weight of the ethanol/water mixture, and water comprises 30 percent by weight of the ethanol/water mixture. The amount of CBD by weight of the combination of CBD and ethanol/water is 5 percent, and the amount of ethanol/water is 91.5 percent. The gelling agent is hydroxyethylcellulose, which is present in an amount of about 3.5% by weight of the preparation 27. […]
The device 20 is contacted with a human cadaver epidermis, and diffusion through the epidermis is measured using the Franz Diffusion Cell method. In a first run, the hydrophilic, porous membrane 24 of Example 1 is used. In a second run, the membrane 24 is omitted so that CBD diffuses directly through the skin adhesive 30.
This example is conducted using three reservoir transdermal devices such as those of Example 1, with each having the hydrophilic, porous membrane described therein. In each case, the preparation includes a mixture of CBD and a liquid carrier with ten (10) percent CBD by weight of the CBD/liquid carrier mixture. Three runs are conducted, each with a device that includes a different liquid carrier in its preparation 27: 1, 2 propylene glycol, PEG-300, and oleic acid. Diffusion through a human cadaver epidermis is measured using the Franz Diffusion Method.
This example is similar to Example 3, except that an ethanol carrier is also tested. As stated above, FIG. 6 is a graph depicting the cumulative flux (μg/cm^2) of CBD through a human cadaver epidermis over a six hour period from solutions comprising ten (10) percent by weight CBD and 90 percent by weight of one of four liquid carriers.

[3] = 10% CBD / 90% liquid carrier, six hour period (FIG. 6)

For C=C(C)[C@@H]1CCC(C)=C[C@H]1c1c(O)cc(CCCCC)cc1O [CBD, Cannabidiol], the “transdermal flux of CBD, PIB (Vistanex LM) adhesive / 10% CBD relative to the other monolithic formulations” value [1] was “superior; also recorded: highest”, the “permeability of CBD through the skin, with versus without membrane 24” value ([2]; 5% CBD in ethanol/water 70/30, hydrophilic porous membrane used or omitted (FIG. 4)) was “the same” and the “cumulative flux of CBD, hydrophilic membrane device versus hydrophobic membrane device” value ([2]; 10% CBD / 90% ethanol, hydrophilic Evopor 5E02A membrane, after about 9 hours (FIG. 3)) was “significantly exceeds”. The “rate of transfer of CBD through the skin, oleic acid versus 1,2 propylene glycol or PEG-300” value ([2]; 10% CBD / 90% liquid carrier, hydrophilic membrane, six hour period (FIG. 5)) was “significantly better”, the “transfer of CBD through the skin, ethanol relative to 1,2 propylene glycol and PEG-300” value [2, 3] was “superior” and the “transfer of CBD through the skin, oleic acid relative to ethanol, 1,2 propylene glycol and PEG-300” value [2, 3] was “superior”. The “expected daily dose, reservoir device relative to monolithic patch of the same skin contact area” value ([2]; 20 cm^2 skin contact area) was “six times higher”, the “cumulative flux of cannabidiol (CBD)” value ([2]; reservoir device, 5% by weight CBD and 70% by weight ethanol liquid carrier, at 12 hours) was 110 micrograms/cm^2 and the “cumulative flux of cannabidiol (CBD)” value ([2]; reservoir device, 5% by weight CBD and 70% by weight ethanol liquid carrier, at 24 hours) was 300 micrograms/cm^2. For the same molecule, the “cumulative flux of CBD, asymptotic value” ([2]; reservoir device, 10% CBD / 90% ethanol, hydrophobic Solupor 7P03A porous membrane (FIG. 3)) was “about 300 μg/cm^2”, the “cumulative flux of cannabidiol (CBD)” value ([2]; reservoir device, 10% by weight CBD and 90% by weight ethanol liquid carrier, hydrophilic porous membrane, at 7 hours) was 150 micrograms/cm^2 and the “cumulative flux of cannabidiol (CBD)” value ([2]; reservoir device, 10% by weight CBD and 90% by weight ethanol liquid carrier, hydrophilic porous membrane, at 17 hours) was 700 micrograms/cm^2. For the same molecule, the “cumulative flux of cannabidiol (CBD)” value ([2]; reservoir device, 10% by weight CBD and 90% by weight oleic acid, over six hours) was 180 micrograms/cm^2, the “cumulative flux of cannabidiol (CBD)” value ([2]; reservoir device, ethanol liquid carrier, over 6 hours) was 70 micrograms/cm^2 and the “transdermal delivery of CBD from saturated ethanol solution versus monolithic patch” value ([2]; reservoir patch formulation) was “significantly higher”.
